Read-outs that look alike come from different tables or passages of the source.
How the values were obtained:
[1] = system: oxaliplatin-induced peripheral neuropathy (cold allodynia); experiment: Repeated daily oral administration in rat model of oxaliplatin-induced peripheral neuropathy, cold allodynia, paw immersion test; assay type: in vivo, male Sprague-Dawley rats
Method: Cold allodynia is measured using the cryothermostat. See Singh, V. P., Kulkarni, S. K., “Effect of licofelone against mechanical hyperalgesia and cold allodynia in the rat model of incisional pain” Pharmacological Reports 2005(57):380-384.
Cold allodynia was measured using the paw immersion test. See Singh, supra. In this test, the latency of hindpaw withdrawal was measured after immersion of the hindpaw in the cryothermostat with a temperature fixed at 10° C. (±0.5° C.).
Duloxetine was used as a reference to validate the assay.
On D-3, latency of hindpaw withdrawal was measured on both paws using the cryothermostat to obtain a pre-induction and pre-treatment baseline. […] The first administration of vehicle and Compound A (groups 1 to 4) was done on D-3, then vehicle and Compound A were daily orally administered until D18 (n=22 repeated treatments). […] On the testing days (D4, D11, and D18), latency of hindpaw withdrawal was measured on both paws using the cryothermostat to obtain a baseline. Duloxetine was then orally administered at the same time as vehicle and Compound A at time T0. Sixty minutes later, the latency of hindpaw withdrawal was measured.
Vehicle (10% Ethanol/40% PEG 400/15% Tween 80 in sterile water) and Compound A were orally administered at 3 ml/kg. Duloxetine was orally administered at 10 ml/kg. Dosing and testing were performed in a random order by a blinded experimenter with the exception of sham animals and the duloxetine-treated group. Doses are expressed in terms of free active substance.
On D-3, the latency of hindpaw withdrawal was measured on both paws using the cryothermostat to obtain preinduction and pretreatment baselines.
The first administration of vehicle and Compound A (group 1 to 4) was done on D-3 then vehicle and Compound A were daily orally administered until D18 (n=22 repeated treatments).
On the testing days (D4, D11 and D18), latency of hindpaw withdrawal was measured on both paws using the cryothermostat (baseline) then duloxetine was orally administered at the same time than vehicle and Compound A (T0) and 60 minutes later, the latency of hindpaw withdrawal was measured.
Results were expressed as: 1) the paw withdrawal latency (mean±s.e.m.) in seconds for each group, calculated from individual paw withdrawal latency; and 2) the percentage of variation of the paw withdrawal latency calculated from the mean value of the vehicle-treated group. To determine a statistical effect of the test substance and the reference substance, data were analyzed by a non-parametrical test. The significance level was p<0.05.

[2] = system: oxaliplatin-induced peripheral neuropathy (cold allodynia); experiment: Single oral administration in rat model of oxaliplatin-induced peripheral neuropathy, cold allodynia, paw immersion test; assay type: in vivo, male Sprague-Dawley rats; conditions: for percentage of variation of the paw withdrawal latency as compared to the vehicle-treated group: p<0.05
Method: Cold allodynia is measured using the cryothermostat. See […]., “Effect of licofelone against mechanical hyperalgesia and cold allodynia in the rat model of incisional pain” Pharmacological Reports 2005(57):380-384. […] Cheng, X., et al., “Herbal Medicine AC591 Prevents oxaliplatin-Induced Peripheral Neuropathy in Animal Model and Cancer Patients” Frontiers in Pharmacology, 2017(8):344. This model is useful to evaluate the analgesic effects of new compounds on oxaliplatin-induced chronic painful symptoms. Cold allodynia was measured using the paw immersion test. See Singh, supra. In this test, the latency of hindpaw withdrawal was measured after immersion of the hindpaw in the cryothermostat with a temperature fixed at 10° C. (±0.5° C.). […] On day zero (D0), latency of hindpaw withdrawal was measured on both paws using the cryothermostat (Baseline pre-induction). […] Sixty minutes later, the latency of hindpaw withdrawal was measured on both paws using the cryothermostat. […] Doses are expressed in terms of free active substance. […] On D0, latency of hindpaw withdrawal was measured on both paws using the cryothermostat to obtain a preinduction baseline preinduction. […] Sixty minutes later, the latency of hindpaw withdrawal was measured on both paws using the cryothermostat. […] Rats were sacrificed at the end of the experiment by CO2 inhalation pending subsequent removal by a certified company. Results were expressed as: 1) the paw withdrawal latency (mean±s.e.m.) in seconds for each group, calculated from individual paw withdrawal latency; and 2) the percentage of variation of the paw withdrawal latency calculated from the mean value of the vehicle-treated group. To determine a statistical effect of the test substance and the reference substance, data were analyzed by a non-parametrical test. The significance level was p<0.05.

[3] = system: patients receiving oxaliplatin; conditions: cited from earlier work

SMILES: CNCC[C@H](Oc1cccc2ccccc12)c1cccs1 [Duloxetine]
- percentage of variation of the paw withdrawal latency as compared to the vehicle-treated group ([1]; 100 mg/kg p.o. on testing day, week 2, 60 minutes after treatment, p<0.01): +33%
- increase in the paw withdrawal latency as compared to the pre-drug baseline of the corresponding group ([1]; 100 mg/kg p.o. on testing day, week 3, 60 minutes after treatment, not significant): +50%
- paw withdrawal latency (mean±s.e.m.) ([1]; 100 mg/kg p.o., week 3, 60 minutes after treatment, pre-drug baseline of the group 6.3±0.3 sec): 9.4 ± 0.7 s
- percentage of variation of the paw withdrawal latency as compared to the vehicle-treated group ([2]; 100 mg/kg p.o., week 2, 60 minutes post-treatment): +42%
- percentage of variation of the paw withdrawal latency as compared to the vehicle-treated group ([2]; 100 mg/kg p.o., week 3, 60 minutes post-treatment): +74%

SMILES: CC(C)C[C@](C)(N)COc1ccc(-c2ccnc(C(F)F)c2)nc1C(F)F [Compound A, ((S)-1-((2′,6-bis (difluoromethyl)-[2,4′-bipyridin]-5-yl)oxy)-2,4-dimethylpentan-2-aminiumdihydrogen phosphate]
- increase in the paw withdrawal latency as compared to the vehicle-treated group ([1]; daily oral administrations at 3 mg/kg): did not show a statistically significant increase
- percentage of variation of the paw withdrawal latency as compared to the vehicle-treated group ([1]; daily p.o. 30 mg/kg then 10 mg/kg, week 2, baseline (before the day's dose), ns): +25%
- paw withdrawal latency (mean±s.e.m.) ([1]; daily p.o. 30 mg/kg then 10 mg/kg, week 3, 60 minutes after the administration, vehicle 6.7±0.6 sec, p<0.05): 10.2 ± 0.8 s
- percentage of variation of the paw withdrawal latency as compared to the vehicle-treated group ([1]; daily p.o. 30 mg/kg then 10 mg/kg, week 3, baseline (before the day's dose), p<0.05): +43%
- increase in paw withdrawal latency as compared to the vehicle-treated group ([2]; 10 mg/kg p.o., 60 minutes post-treatment): did not show a statistically significant increase
- percentage of variation of the paw withdrawal latency as compared to the vehicle-treated group ([2]; 30 mg/kg p.o., week 3, 60 minutes post-treatment): +35%

SMILES: O=C1[O][Pt]2([NH][C@@H]3CCCC[C@H]3[NH]2)[O]C1=O [oxaliplatin]
- prevalence of CIPN in patients receiving oxaliplatin ([3]; after one month of chemotherapy): approximately 68%
- prevalence of CIPN in patients receiving oxaliplatin ([3]; at six months or more): 30%
- prevalence of CIPN in patients receiving oxaliplatin ([3]; at three months): 60%
- patients who took oxaliplatin reporting long-lasting neuropathic symptoms ([3]; chronic neuropathic pain): Approximately 60%
